Laboratory results from PubChem BioAssay (NCI).
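These data come from cells grown in 96-well plates and exposed to compound for 48 hours at five concentrations. GI50 = concentration required for 50% inhibition of growth. Definition used: TGI = concentration required for complete inhibition of growth.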

Tests used:
Experiment in all cases: NCI tumour cell line growth inhibition, 48 h
NCI-H460 lung = system: NCI-H460 lung
RPMI-8226 leukemia = system: RPMI-8226 leukemia
MOLT-4 leukemia = system: MOLT-4 leukemia
ACHN renal = system: ACHN renal
OVCAR-8 ovarian = system: OVCAR-8 ovarian
UACC-62 melanoma = system: UACC-62 melanoma
CCRF-CEM leukemia = system: CCRF-CEM leukemia
UACC-257 melanoma = system: UACC-257 melanoma
MCF7 breast = system: MCF7 breast
NCI-H23 lung = system: NCI-H23 lung
SK-MEL-2 melanoma = system: SK-MEL-2 melanoma
HS 578T breast = system: HS 578T breast
NCI-H522 lung = system: NCI-H522 lung
OVCAR-5 ovarian = system: OVCAR-5 ovarian
SN12C renal = system: SN12C renal
SK-MEL-5 melanoma = system: SK-MEL-5 melanoma
BT-549 breast = system: BT-549 breast
MDA-MB-435 = system: MDA-MB-435
SF-539 CNS = system: SF-539 CNS
RXF 393 renal = system: RXF 393 renal
OVCAR-4 ovarian = system: OVCAR-4 ovarian
SF-268 CNS = system: SF-268 CNS
SR leukemia = system: SR leukemia
A549 NSCLC = system: A549 NSCLC
MDA-MB-231 breast = system: MDA-MB-231 breast
COLO 205 colon = system: COLO 205 colon
UO-31 renal = system: UO-31 renal
HOP-92 NSCLC = system: HOP-92 NSCLC
DU-145 prostate = system: DU-145 prostate
HCT-15 colon = system: HCT-15 colon
A498 renal = system: A498 renal
OVCAR-3 ovarian = system: OVCAR-3 ovarian
SK-MEL-28 melanoma = system: SK-MEL-28 melanoma
HCC-2998 colon = system: HCC-2998 colon
SNB-19 CNS = system: SNB-19 CNS
MALME-3M melanoma = system: MALME-3M melanoma
TK-10 renal = system: TK-10 renal
T-47D breast = system: T-47D breast
SNB-75 CNS = system: SNB-75 CNS
NCI/ADR-RES ovarian = system: NCI/ADR-RES ovarian
IGROV1 ovarian = system: IGROV1 ovarian
HCT-116 colon = system: HCT-116 colon
SK-OV-3 ovarian = system: SK-OV-3 ovarian
PC-3 prostate = system: PC-3 prostate
HL-60(TB) leukemia = system: HL-60(TB) leukemia
CAKI-1 renal = system: CAKI-1 renal
K-562 leukemia = system: K-562 leukemia
NCI-H226 lung = system: NCI-H226 lung
KM12 colon = system: KM12 colon
SF-295 CNS = system: SF-295 CNS
SW-620 colon = system: SW-620 colon
U251 CNS = system: U251 CNS
M14 melanoma = system: M14 melanoma
786-0 renal = system: 786-0 renal
HT29 colon = system: HT29 colon
LOX IMVI melanoma = system: LOX IMVI melanoma
HOP-62 NSCLC = system: HOP-62 NSCLC

## Cn1cc(C2=C(c3cn(C)c4cc(C(=O)O)ccc34)C(=O)NC2=O)c2ccccc21
NCI-H460 lung
  GI50: > 25 µM
  TGI: > 25 µM
RPMI-8226 leukemia
  GI50: > 25 µM
  TGI: > 25 µM
MOLT-4 leukemia
  GI50: > 25 µM
  TGI: > 25 µM
ACHN renal
  GI50: > 25 µM
  TGI: > 25 µM
OVCAR-8 ovarian
  GI50: > 25 µM
  TGI: > 25 µM
UACC-62 melanoma
  GI50: > 25 µM
  TGI: > 25 µM
CCRF-CEM leukemia
  GI50: > 20.4 µM
  TGI: > 25 µM
UACC-257 melanoma
  GI50: > 25 µM
  TGI: > 25 µM
MCF7 breast
  GI50: > 25 µM
  TGI: > 25 µM
NCI-H23 lung
  GI50: > 25 µM
  TGI: > 25 µM
SK-MEL-2 melanoma
  GI50: > 15.5 µM
  TGI: 25 µM
HS 578T breast
  GI50: 5.86 µM
  TGI: > 25 µM
NCI-H522 lung
  GI50: > 12.1 µM
  TGI: > 20.1 µM
OVCAR-5 ovarian
  GI50: > 25 µM
  TGI: > 25 µM
SN12C renal
  GI50: > 25 µM
  TGI: > 25 µM
SK-MEL-5 melanoma
  GI50: > 25 µM
  TGI: > 25 µM
BT-549 breast
  GI50: > 25 µM
  TGI: > 25 µM
MDA-MB-435
  GI50: > 25 µM
  TGI: > 25 µM
SF-539 CNS
  GI50: > 25 µM
  TGI: > 25 µM
RXF 393 renal
  GI50: > 19.8 µM
  TGI: > 25 µM
OVCAR-4 ovarian
  GI50: > 25 µM
  TGI: > 25 µM
SF-268 CNS
  GI50: > 25 µM
  TGI: > 25 µM
SR leukemia
  GI50: > 13.4 µM
  TGI: > 25 µM
A549 NSCLC
  GI50: > 25 µM
  TGI: > 25 µM
MDA-MB-231 breast
  GI50: > 25 µM
  TGI: > 25 µM
COLO 205 colon
  GI50: > 25 µM
  TGI: > 25 µM
UO-31 renal
  GI50: > 25 µM
  TGI: > 25 µM
HOP-92 NSCLC
  GI50: > 25 µM
  TGI: > 25 µM
DU-145 prostate
  GI50: > 25 µM
  TGI: > 25 µM
HCT-15 colon
  GI50: > 25 µM
  TGI: > 25 µM
A498 renal
  GI50: > 12 µM
  TGI: > 25 µM
OVCAR-3 ovarian
  GI50: > 25 µM
  TGI: > 25 µM
SK-MEL-28 melanoma
  GI50: > 25 µM
  TGI: > 25 µM
HCC-2998 colon
  GI50: > 25 µM
  TGI: > 25 µM
SNB-19 CNS
  GI50: > 25 µM
  TGI: > 25 µM
MALME-3M melanoma
  GI50: > 25 µM
  TGI: > 25 µM
TK-10 renal
  GI50: > 25 µM
  TGI: > 25 µM
T-47D breast
  GI50: 21.1 µM
  TGI: > 25 µM
SNB-75 CNS
  GI50: 4.96 µM
  TGI: > 25 µM
NCI/ADR-RES ovarian
  GI50: > 25 µM
  TGI: > 25 µM
IGROV1 ovarian
  GI50: > 25 µM
  TGI: > 25 µM
HCT-116 colon
  GI50: > 25 µM
  TGI: > 25 µM
SK-OV-3 ovarian
  GI50: > 25 µM
  TGI: > 25 µM
PC-3 prostate
  GI50: > 25 µM
  TGI: > 25 µM
HL-60(TB) leukemia
  GI50: > 25 µM
  TGI: > 25 µM
CAKI-1 renal
  GI50: > 17.2 µM
  TGI: > 25 µM
K-562 leukemia
  GI50: > 25 µM
  TGI: > 25 µM
NCI-H226 lung
  GI50: > 25 µM
  TGI: > 25 µM
KM12 colon
  GI50: > 25 µM
  TGI: > 25 µM
SF-295 CNS
  GI50: > 25 µM
  TGI: > 25 µM
SW-620 colon
  GI50: > 25 µM
  TGI: > 25 µM
U251 CNS
  GI50: > 25 µM
  TGI: > 25 µM
M14 melanoma
  GI50: > 25 µM
  TGI: > 25 µM
786-0 renal
  GI50: > 25 µM
  TGI: > 25 µM
HT29 colon
  GI50: > 25 µM
  TGI: > 25 µM
LOX IMVI melanoma
  GI50: > 13.9 µM
  TGI: > 25 µM
HOP-62 NSCLC
  GI50: > 25 µM
  TGI: > 25 µM
